Laboratory results taken from patent US4889849A, “Spasmolytically active tertiary amine derivatives” (Duphar International Research B.V., priority 1984, dated 1989).

Key:
[1] = Peripheral muscarinolytic side effect (saliva/tear secretion, oxotremorine) relative to spasmolytic activity; details: mouse, in vivo, ip
Protocol: (§1) The choice of the dosage depends on the nature and the severity of the disease.
(§2) 3. Muscarinolytic "side effects".
(§3) The compounds to be tested and oxotremorine were administered intraperitoneally to femal DAP-mice at the same instant or, in case of analgesia, also 30 minutes previously.
(§4) Inhibition of the tremors and/or analgesia caused by oxotremorine is a measure of the central muscarinolytic activity, while the inhibition of saliva secretion or tear secretion reflects the peripheral muscarinolytic activity.

ileum of the guinea pig = assay: Spasmolytic activity in vivo (effect on the ileum of the guinea pig, contractions induced with intravenous carbachol); details: atropine = 1
Protocol: Effect on the ileum of the guinea pig.
The spasmolytic effect of the compounds was tested on the ilea of urethane-narcotised, empty-stomach guinea pigs of approximately 500 g (Zwagemakers, Arzn. Forsch. 30, 1517 (1980). Contractions of the intestine were induced every 7 minutes with intravenously administered carbachol in a dose of 5 μg per kg of body weight. After constant response had been reached, the test compounds were administered 3 minutes before the next dose of carbachol was given and the protecting effect was studied for 52 minutes. The contractions after administration of the test compounds were expressed as a percentage of the average of two control values. The average percentage of inhibition was calculated throughout the 52 minutes from the region under the curve. The maximum percentage of inhibition and the duration of the spasmolytic effect were also determined. The spasmolytic effect was considered to be finished when two successive contractions were 20% or less of the control value.

[2] = Central muscarinolytic side effect (tremors/analgesia, oxotremorine) relative to spasmolytic activity; details: mouse, in vivo, ip
Protocol: as §1, §2, §3, §4

| Compound | selectivity ratio [1] | Spasm. activ. (ileum of the guinea pig) | selectivity ratio [2] |
| --- | --- | --- | --- |
| CCN(CCCC(=O)C1CCCCC1)C(C)Cc1ccc(OC)cc1 (stereo not shown) [Secoverine] | 50 | 0.6 | 2 |
| CN1[C@@H]2CC[C@H]1C[C@@H](OC(=O)C(CO)c1ccccc1)C2 (stereo partly shown) [Atropine] |  | 1 |  |
